15 compounds from paper PMC6274419, “Synthesis and Anticancer Activities of Glycyrrhetinic Acid Derivatives” (Molecules, 2016) can be followed below.

Counter-ions that a name gives are not always drawn.

With `COC(=O)/C=C/c1ccc(OC(=O)[C@@]2(C)CC[C@]3(C)CC[C@]4(C)C(=CC(=O)[C@@H]5[C@@]6(C)CC[C@H](OC(=O)[C@@H](N)CC[Se]C)C(C)(C)[C@@H]6CC[C@]54C)[C@@H]3C2)c(OC)c1` (as salt: hydrochloride) [Compound 42, Ferulic acid methyl ester 3β-(l-selenomethionine)-11-oxo-olean-12-en-30-oate hydrochloride], the melting point fell in the range of 210 to 213 °C.

The compound `CCOC(=O)/C=C/c1ccc(OC(=O)[C@@]2(C)CC[C@]3(C)CC[C@]4(C)C(=CC(=O)[C@@H]5[C@@]6(C)CC[C@H](OC(=O)[C@@H](N)CCSC)C(C)(C)[C@@H]6CC[C@]54C)[C@@H]3C2)c(OC)c1` (as salt: hydrochloride) [Compound 43, Ferulic acid ethyl ester 3β-(l-methionine)-11-oxo-olean-12-en-30-oate hydrochloride] had a melting point of 191 to 194 °C.

The compound `CCOC(=O)/C=C/c1ccc(OC(=O)[C@@]2(C)CC[C@]3(C)CC[C@]4(C)C(=CC(=O)[C@@H]5[C@@]6(C)CC[C@H](OC(=O)[C@@H](N)CC[Se]C)C(C)(C)[C@@H]6CC[C@]54C)[C@@H]3C2)c(OC)c1` (as salt: hydrochloride) [Compound 44, Ferulic acid ethyl ester 3β-(l-selenomethionine)-11-oxo-olean-12-en-30-oate hydrochloride] returned a melting point of 205 to 207 °C.

In the case of `COC(=O)/C=C/c1ccc(OC(=O)[C@@]2(C)CC[C@]3(C)CC[C@]4(C)C(=CC(=O)[C@@H]5[C@@]6(C)CC[C@H](OC(=O)[C@@H](N)CCSC)C(C)(C)[C@@H]6CC[C@]54C)[C@@H]3C2)cc1` (as salt: hydrochloride) [Compound 45, trans-4-Hydroxycinnamic acid methyl ester 3β-(l-methionine)-11-oxo-olean-12-en-30-oate hydrochloride], the melting point is 205 to 207 °C.

For `COC(=O)/C=C/c1ccc(OC(=O)[C@@]2(C)CC[C@]3(C)CC[C@]4(C)C(=CC(=O)[C@@H]5[C@@]6(C)CC[C@H](OC(=O)[C@@H](N)CC[Se]C)C(C)(C)[C@@H]6CC[C@]54C)[C@@H]3C2)cc1` (as salt: hydrochloride) [Compound 46, trans-4-Hydroxycinnamic acid methyl ester 3β-(l-selenomethionine)-11-oxo-olean-12-en-30-oate hydrochloride], the melting point lay in the range of 218 to 221 °C.

Regarding `CCOC(=O)/C=C/c1ccc(OC(=O)[C@@]2(C)CC[C@]3(C)CC[C@]4(C)C(=CC(=O)[C@@H]5[C@@]6(C)CC[C@H](OC(=O)[C@@H](N)CCSC)C(C)(C)[C@@H]6CC[C@]54C)[C@@H]3C2)cc1` (as salt: hydrochloride) [Compound 47, trans-4-Hydroxycinnamic acid ethyl ester 3β-(l-methionine)-11-oxo-olean-12-en-30-oatehydrochloride], the melting point lay within 202 to 204 °C.

With `CCOC(=O)/C=C/c1ccc(OC(=O)[C@@]2(C)CC[C@]3(C)CC[C@]4(C)C(=CC(=O)[C@@H]5[C@@]6(C)CC[C@H](OC(=O)[C@@H](N)CC[Se]C)C(C)(C)[C@@H]6CC[C@]54C)[C@@H]3C2)cc1` (as salt: hydrochloride) [Compound 48, trans-4-Hydroxycinnamic acid ethyl ester 3β-(l-selenomethionine)-11-oxo-olean-12-en-30-oate hydrochloride], the melting point lay in the range of 208 to 211 °C.

In the case of `COC(=O)/C=C/c1ccc(OC)c(OC(=O)[C@@]2(C)CC[C@]3(C)CC[C@]4(C)C(=CC(=O)[C@@H]5[C@@]6(C)CC[C@H](OC(=O)[C@@H](N)CCSC)C(C)(C)[C@@H]6CC[C@]54C)[C@@H]3C2)c1` (as salt: hydrochloride) [Compound 49, Isoferulic acid methyl ester 3β-(l-methionine)-11-oxo-olean-12-en-30-oate hydrochloride], the melting point was 199 to 201 °C.

As for `COC(=O)/C=C/c1ccc(OC)c(OC(=O)[C@@]2(C)CC[C@]3(C)CC[C@]4(C)C(=CC(=O)[C@@H]5[C@@]6(C)CC[C@H](OC(=O)[C@@H](N)CC[Se]C)C(C)(C)[C@@H]6CC[C@]54C)[C@@H]3C2)c1` (as salt: hydrochloride) [Compound 50, Isoferulic acid methyl ester 3β-(l-selenomethionine)-11-oxo-olean-12-en-30-oate hydrochloride], the melting point lay in the range of 201 to 203 °C.

Regarding `CCOC(=O)/C=C/c1ccc(OC)c(OC(=O)[C@@]2(C)CC[C@]3(C)CC[C@]4(C)C(=CC(=O)[C@@H]5[C@@]6(C)CC[C@H](OC(=O)[C@@H](N)CCSC)C(C)(C)[C@@H]6CC[C@]54C)[C@@H]3C2)c1` (as salt: hydrochloride) [Compound 51, Isoferulic acid ethyl ester 3β-(l-methionine)-11-oxo-olean-12-en-30-oate hydrochloride], the melting point fell in the range of 192 to 195 °C.

Consider `CCOC(=O)/C=C/c1ccc(OC)c(OC(=O)[C@@]2(C)CC[C@]3(C)CC[C@]4(C)C(=CC(=O)[C@@H]5[C@@]6(C)CC[C@H](OC(=O)[C@@H](N)CC[Se]C)C(C)(C)[C@@H]6CC[C@]54C)[C@@H]3C2)c1` (as salt: hydrochloride) [Compound 52, Isoferulic acid ethyl ester 3β-(l-selenomethionine)-11-oxo-olean-12-en-30-oate hydrochloride], for which the melting point lay in the range of 196 to 198 °C.

In turn, `COC(=O)/C=C/c1cccc(OC(=O)[C@@]2(C)CC[C@]3(C)CC[C@]4(C)C(=CC(=O)[C@@H]5[C@@]6(C)CC[C@H](OC(=O)[C@@H](N)CCSC)C(C)(C)[C@@H]6CC[C@]54C)[C@@H]3C2)c1` (as salt: hydrochloride) [Compound 53, trans-3-Hydroxycinnamic acid methyl ester 3β-(l-methionine)-11-oxo-olean-12-en-30-oate hydrochloride] came in with a melting point of 190 to 192 °C.

The compound `COC(=O)/C=C/c1cccc(OC(=O)[C@@]2(C)CC[C@]3(C)CC[C@]4(C)C(=CC(=O)[C@@H]5[C@@]6(C)CC[C@H](OC(=O)[C@@H](N)CC[Se]C)C(C)(C)[C@@H]6CC[C@]54C)[C@@H]3C2)c1` (as salt: hydrochloride) [Compound 54, trans-3-Hydroxycinnamic acid methyl ester 3β-(l-selenomethionine)-11-oxo-olean-12-en-30-oate hydro-chloride] registered a melting point of 194 to 196 °C.

`CCOC(=O)/C=C/c1cccc(OC(=O)[C@@]2(C)CC[C@]3(C)CC[C@]4(C)C(=CC(=O)[C@@H]5[C@@]6(C)CC[C@H](OC(=O)[C@@H](N)CCSC)C(C)(C)[C@@H]6CC[C@]54C)[C@@H]3C2)c1` (as salt: hydrochloride) [Compound 55, trans-3-Hydroxycinnamic acid ethyl ester 3β-(l-methionine)-11-oxo-olean-12-en-30-oate hydrochloride]: the melting point lay within 183 to 185 °C.

Compound `CCOC(=O)/C=C/c1cccc(OC(=O)[C@@]2(C)CC[C@]3(C)CC[C@]4(C)C(=CC(=O)[C@@H]5[C@@]6(C)CC[C@H](OC(=O)[C@@H](N)CC[Se]C)C(C)(C)[C@@H]6CC[C@]54C)[C@@H]3C2)c1` (as salt: hydrochloride) [Compound 56, trans-3-Hydroxycinnamic acid ethyl ester 3β-(l-selenomethionine)-11-oxo-olean-12-en-30-oate hydrochloride] gave a melting point of 191 to 194 °C.

The term melting point denotes the temperature of the solid-liquid transition.
